Assay results taken from the supplement of paper PMC10307832.

Experiments:
Test in all cases: relative viability (nuclei count vs DMSO), 5 days (fraction); higher = more cells survive
[1] = compound: CN(C)C[C@@H]1CCn2cc(c3ccccc32)C2=C(C(=O)NC2=O)c2cn(c3ccccc23)CCO1 [Ruboxistaurin] + Cc1nc(NC(=O)N2CCC[C@H]2C(N)=O)sc1-c1ccnc(C(C)(C)C(F)(F)F)c1 [Alpelisib] (partner 2 µM)
How it was run: (§1)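 Relative viability equals treated-well nuclei counts divided by vehicle-well nuclei counts. Counts came from 4× images of lung cancer cell lines grown in 1536-well plates for 5 days after pin-tool dosing on the day after seeding. Dosing used one drug alone or a fixed anchor-drug dose plus five library-drug doses (not always all listed) in √10 steps, and values are medians of duplicate plates.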

[2] = compound: CN(C)C[C@@H]1CCn2cc(c3ccccc32)C2=C(C(=O)NC2=O)c2cn(c3ccccc23)CCO1 [Ruboxistaurin] + CS(=O)(=O)N1CCN(Cc2cc3nc(-c4cccc5[nH]ncc45)nc(N4CCOCC4)c3s2)CC1 [Pictilisib] (partner 1 µM)
How it was run: as §1

[3] = compound: CN(C)C[C@@H]1CCn2cc(c3ccccc32)C2=C(C(=O)NC2=O)c2cn(c3ccccc23)CCO1 [Ruboxistaurin] + C[C@@H](Oc1cc(-c2cnn(C3CCNCC3)c2)cnc1N)c1c(Cl)ccc(F)c1Cl [Crizotinib] (partner 1 µM)
How it was run: as §1

[4] = compound: CN(C)C[C@@H]1CCn2cc(c3ccccc32)C2=C(C(=O)NC2=O)c2cn(c3ccccc23)CCO1 [Ruboxistaurin] + C[C@]1(O)C[C@@H](c2nc(-c3ccc4ccc(-c5ccccc5)nc4c3)c3c(N)nccn32)C1 [Linsitinib] (partner 1 µM)
How it was run: as §1

[5] = compound: CN(C)C[C@@H]1CCn2cc(c3ccccc32)C2=C(C(=O)NC2=O)c2cn(c3ccccc23)CCO1 [Ruboxistaurin] + CC(C)C[C@H](NC(=O)[C@H](Cc1ccccc1)NC(=O)c1cnccn1)B(O)O [Bortezomib] (partner 0.002 µM)
How it was run: as §1

Row | Cell Line | relative viability ([1]; first compound 0.08 µM) | relative viability ([1]; first compound 0.8 µM) | relative viability ([1]; first compound 2.53 µM) | relative viability ([1]; first compound 8 µM) | relative viability ([2]; first compound 0.08 µM) | relative viability ([2]; first compound 0.8 µM) | relative viability ([2]; first compound 2.53 µM) | relative viability ([2]; first compound 8 µM) | relative viability ([3]; first compound 0.08 µM) | relative viability ([3]; first compound 0.8 µM) | relative viability ([3]; first compound 2.53 µM) | relative viability ([3]; first compound 8 µM) | relative viability ([4]; first compound 0.08 µM) | relative viability ([4]; first compound 0.8 µM) | relative viability ([4]; first compound 2.53 µM) | relative viability ([4]; first compound 8 µM) | relative viability ([5]; first compound 0.08 µM) | relative viability ([5]; first compound 0.8 µM) | relative viability ([5]; first compound 2.53 µM) | relative viability ([5]; first compound 8 µM)
1 | NCI-H1651 | 1.04 | 0.755 | 0.974 | 0.797 | 0.63 | 0.531 | 0.502 | 0.624 | 0.882 | 0.883 | 0.911 | 0.911 | 1.04 | 0.897 | 0.93 | 0.85 | 0.975 | 0.877 | 0.942 | 0.958
2 | NCI-H1666 | 1.12 | 0.809 | 0.789 | 0.585 | 0.413 | 0.355 | 0.474 | 0.421 | 0.941 | 0.88 | 1.09 | 0.733 | 0.951 | 0.691 | 0.964 | 0.565 | 0.857 | 0.751 | 0.806 | 0.733
3 | NCI-H1703 | 0.356 | 0.323 | 0.366 | 0.308 | 0.198 | – | 0.277 | 0.23 | 0.662 | 0.574 | 0.582 | 0.322 | 0.756 | 0.464 | 0.957 | 0.82 | 0.401 | 0.319 | 0.382 | 0.237
4 | NCI-H1734 | 0.768 | 0.641 | 0.663 | 0.57 | 0.471 | 0.398 | 0.46 | 0.352 | 0.719 | 0.514 | 0.605 | 0.66 | 0.964 | 0.815 | 0.806 | 0.666 | 1.01 | 0.781 | 1.06 | 0.816
5 | NCI-H1755 | 0.962 | 0.839 | 0.897 | 0.834 | 0.422 | 0.362 | 0.373 | 0.264 | 0.932 | 0.771 | 0.868 | 0.87 | 1.04 | 0.976 | 0.973 | 0.879 | 0.976 | 0.945 | 0.979 | 1.02
6 | NCI-H1792 | 0.77 | 0.62 | 0.695 | 0.694 | 0.258 | 0.231 | 0.246 | 0.233 | 1.05 | 0.956 | 0.966 | 1.01 | 0.536 | 0.449 | 0.506 | 0.487 | 0.995 | 0.928 | 0.915 | 1.03
7 | NCI-H1915 | 1.07 | 1.02 | 1.03 | 1.09 | 0.978 | 0.839 | 0.924 | 0.845 | 0.892 | 0.829 | 0.855 | 0.901 | 1.12 | 1.04 | 1.03 | 1.07 | 0.985 | 0.928 | 0.985 | 0.896
8 | NCI-H1975 | 0.678 | 0.565 | 0.561 | 0.447 | 0.302 | 0.235 | 0.252 | 0.211 | 0.954 | 0.846 | 0.954 | 0.862 | 1.07 | 0.916 | 0.938 | 0.769 | 0.392 | 0.311 | 0.424 | 0.392
9 | NCI-H1993 | 0.615 | 0.664 | 0.664 | 0.628 | 0.828 | 0.742 | 0.763 | 0.697 | 0.88 | 0.726 | 0.944 | 0.708 | 0.63 | 0.695 | 0.62 | 0.703 | 1.3 | 0.925 | 1.01 | 0.83
10 | NCI-H2009 | 1.21 | 1.14 | 1.18 | 1.14 | 0.819 | 0.796 | 0.825 | 0.552 | 1 | 0.959 | 1.06 | 1.08 | 1.18 | 1.14 | 1.18 | 1.23 | 1.04 | 0.941 | 1.14 | 1.41
11 | NCI-H2023 | 0.633 | 0.565 | 0.605 | 0.415 | 0.243 | 0.179 | 0.194 | 0.156 | 0.691 | 0.588 | 0.565 | 0.503 | 0.721 | 0.53 | 0.616 | 0.492 | 1.1 | 0.898 | 1.06 | 0.819
12 | NCI-H2085 | 0.996 | 0.899 | 0.977 | 0.997 | 0.447 | 0.419 | 0.409 | 0.324 | 1 | 0.684 | 0.874 | 0.917 | 1.01 | 0.806 | 0.861 | 0.809 | 1.07 | 0.987 | 1.09 | 1.17
13 | NCI-H2087 | 1.07 | 0.971 | 1.24 | 0.952 | 0.908 | 0.68 | 0.837 | 0.57 | 0.898 | 0.735 | 1.08 | 1.15 | 1.13 | 0.874 | 0.98 | 0.884 | 0.794 | 0.615 | 0.798 | 1.04
14 | NCI-H2126 | 0.729 | 0.713 | 0.76 | 0.697 | 0.533 | 0.447 | 0.541 | 0.463 | 1.03 | 0.92 | 1.07 | 1 | 0.744 | 0.641 | 0.749 | 0.665 | 1.11 | 1.05 | 1.18 | 1.16
15 | NCI-H2228 | 0.85 | 0.675 | 0.837 | 0.478 | 0.431 | 0.358 | 0.345 | 0.335 | 0.453 | 0.427 | 0.316 | 0.3 | 0.847 | 0.481 | 0.681 | 0.751 | 1.33 | 0.708 | 1.08 | 0.941
16 | NCI-H2347 | 1.09 | 0.951 | 0.967 | 0.863 | 0.739 | 0.772 | 0.714 | 0.519 | 0.725 | 0.581 | 0.568 | 0.651 | 0.943 | 0.902 | 0.92 | 0.984 | 1.25 | 1.11 | 0.957 | 1.02
